One may read the IC50 as the midpoint of a concentration-inhibition curve. A higher IC50 goes with weaker potency. For orientation: Ki means a measure of affinity in units of concentration, obtained from inhibition or displacement.

IC50 and Ki data for 13 compounds are collected here from ChEMBL document CHEMBL3351421, “Novel styryl-indoles as small molecule inhibitors of 25-hydroxyvitamin D-24-hydroxylase (CYP24A1): Synthesis and biological evaluation” (Eur J Med Chem, 2014).

For the assay, the target named is T1, 1,25-dihydroxyvitamin D(3) 24-hydroxylase, mitochondrial (Homo sapiens, UniProt Q07973).
T1 sequence (Q07973 whole entry): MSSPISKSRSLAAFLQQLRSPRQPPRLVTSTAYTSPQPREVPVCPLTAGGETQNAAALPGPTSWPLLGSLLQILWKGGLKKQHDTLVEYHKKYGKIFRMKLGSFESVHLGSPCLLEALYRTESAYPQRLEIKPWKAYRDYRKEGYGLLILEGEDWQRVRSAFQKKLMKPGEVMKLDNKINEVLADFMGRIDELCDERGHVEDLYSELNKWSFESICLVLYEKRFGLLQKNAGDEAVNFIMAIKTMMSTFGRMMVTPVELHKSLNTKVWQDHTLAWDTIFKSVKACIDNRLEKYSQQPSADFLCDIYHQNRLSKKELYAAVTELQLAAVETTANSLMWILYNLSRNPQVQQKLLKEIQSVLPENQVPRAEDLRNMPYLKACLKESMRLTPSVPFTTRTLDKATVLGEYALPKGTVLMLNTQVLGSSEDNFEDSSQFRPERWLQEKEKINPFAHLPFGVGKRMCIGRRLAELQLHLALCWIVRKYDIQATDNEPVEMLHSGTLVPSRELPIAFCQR
Briefly: Inhibition of N-terminally MBP-fused human CYP24A1 by cell-free assay.
For the compound `C(=C\c1cccc2c1ccn2CCCn1ccnc1)/c1ccccc1`, the IC50 was found to be 360 nM and the Ki amounted to 26 nM.
For `COc1cc(/C=C/c2cccc3c2ccn3CCCn2ccnc2)cc(OC)c1`, in that order: 440 nM and 31 nM.
`C(=C\c1cccc2c1ccn2CCCCn1ccnc1)/c1ccccc1` returned an IC50 of 200 nM and a Ki of 14 nM.
The matching figures for `COc1cc(/C=C/c2cccc3c2ccn3CCCCn2ccnc2)cc(OC)c1`: 190 nM and 14 nM.
In the case of `C(=C\c1ccc2c(ccn2CCCn2ccnc2)c1)/c1ccccc1`, the IC50 was determined as 520 nM and the Ki was found to be 37 nM.
For `C(=C\c1ccc2c(ccn2CCCCn2ccnc2)c1)/c1ccccc1`, in that order: 520 nM and 37 nM.
For `Cc1ccc(S(=O)(=O)NCCCn2ccc3c(/C=C/c4ccccc4)cccc32)cc1`, in that order: 4800 nM and 340 nM.
Compound `COc1cc(/C=C/c2cccc3c2ccn3CCCNS(=O)(=O)c2ccc(C)cc2)cc(OC)c1` yielded a half-inhibitory concentration (IC50) of 10400 nM and a Ki of 730 nM.
In turn, `Cc1ccc(S(=O)(=O)NCCCCn2ccc3c(/C=C/c4ccccc4)cccc32)cc1` displayed a half-maximal inhibitory concentration (IC50) of 3300 nM and an inhibitory constant (Ki) of 230 nM.
For `COc1cc(/C=C/c2cccc3c2ccn3CCCCNS(=O)(=O)c2ccc(C)cc2)cc(OC)c1`, in that order: 10500 nM and 740 nM.
For `O=S(OCCCn1ccc2c(/C=C/c3ccccc3)cccc21)c1ccccc1` (stereo unspecified), in that order: 7600 nM and 540 nM.
As to `Cc1ccc(S(=O)(=O)OCCCn2ccc3c(/C=C/c4ccccc4)cccc32)cc1`, the IC50 was 9000 nM and the affinity corresponds to a Ki of 640 nM.
The matching figures for `COc1cc(/C=C/c2cccc3c2ccn3CCCOS(=O)(=O)c2ccc(C)cc2)cc(OC)c1`: 16900 nM and 1190 nM.
